Assay results taken from PMC6409085, “Three odorant-binding proteins are involved in the behavioral response of Sogatella furcifera to rice plant volatiles” (PeerJ, 2019).
Where “and” joins values, the source holds several entries; their conditions need not be identical. Equal entries are not always repeated.

Legend:
Assay in all cases: biochemical
Type in all cases: binding
SfurOBP2 = SfurOBP2 (Sogatella furcifera, UniProt V5T759)
Experimental: (§1) Thirty-six rice odorants ([He et al., 2014]; [Wang et al., 2017]) and 1-N-phenyl-naphthylamine (1-NPN) were purchased from Sigma-Aldrich (St Louis, MO, USA). These odorants and 1-NPN were dissolved in high-performance liquid chromatography (HPLC) purify grade methanol for 1.0 mM as work solution.
(§2) Fluorescence competitive binding assays were performed on Tecan Spark 10M (Tecan Group Ltd., Männedorf, Switzerland) with the F96 Black ELIAS Plate (Sangon) ([Khuhro et al., 2017]; [Liu et al., 2017]). The solutions were excited at 337 nm and emission spectra were recorded between 390 and 490 nm. First, to test the binding constants of 1-NPN to the SfurOBPs, a 2.0 µM solution of protein in 50 mM Tris-HCl (pH = 7.4) was titrated with 1 mM 1-NPN to achieve virous concentrations. Next, the competitive binding of each odorant was measured using the 1-NPN as fluorescent reporter and odorant as competitor. The concentrations of protein and 1-NPN were both 2.0 µM, the odorant added after protein and 1-NPN added into the well of ELIAS Plate for 2 min. The final concentrations of each competitor were 2, 4, 6, 8, 10, 12, 14, 16, 18 and 20 µM. After 2 min of odorant added, the fluorescence intensity was measured and recorded. The volume of mixed solution in each well was maintained at 250 µL. Each interaction was performed in triplicates.
(§3) GraphPad Prism 7.0 software (GraphPad Software, Inc., La Jolla, CA, USA) was used to calculated and generated the binding constants (K1−NPN) of 1-NPN to SfurOBPs and relative Scatchard plots ([Ban et al., 2003]; [Li et al., 2016]). Dissociation constant (Ki) of each odorant to SfurOBP was computed from the corresponding IC50 value (the half maximal inhibitory concentration), using the following equation: Ki=[IC50]/(1 + [1-NPN]/K1−NPN), where [1-NPN] is the free concentration of 1-NPN and K1−NPN is the dissociation constant of the complex protein/1-NPN.

SfurOBP3 = SfurOBP3 (Sogatella furcifera, UniProt V5T818); conditions: for Fluorescence competitive binding assay, fluorescence intensity: OBP3, three replicate columns
Experimental: as §1, §2, §3

SfurOBP11 = SfurOBP11 (Sogatella furcifera, UniProt V5T6E3)
Experimental: as §1, §2, §3

SfurOBP1 = SfurOBP1 (Sogatella furcifera, UniProt V5T8N5); conditions: for Fluorescence competitive binding assay, fluorescence intensity: OBP1, three replicate columns
Experimental: as §1, §2, §3

SfurOBP11, sequence (V5T6E3 entry or part of it): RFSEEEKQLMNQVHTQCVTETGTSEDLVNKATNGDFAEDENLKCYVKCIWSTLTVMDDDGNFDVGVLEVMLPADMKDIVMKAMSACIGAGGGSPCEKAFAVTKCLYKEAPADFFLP
SfurOBP1, sequence (V5T8N5 entry or part of it): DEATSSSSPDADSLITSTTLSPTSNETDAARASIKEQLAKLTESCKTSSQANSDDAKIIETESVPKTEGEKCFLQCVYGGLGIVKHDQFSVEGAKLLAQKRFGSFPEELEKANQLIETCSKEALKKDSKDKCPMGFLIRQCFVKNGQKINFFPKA
SfurOBP3, sequence (V5T818 entry or part of it): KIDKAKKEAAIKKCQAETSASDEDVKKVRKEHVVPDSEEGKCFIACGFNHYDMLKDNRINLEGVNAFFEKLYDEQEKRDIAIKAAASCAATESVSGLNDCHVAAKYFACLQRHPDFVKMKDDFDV
SfurOBP2, sequence (V5T759 entry or part of it): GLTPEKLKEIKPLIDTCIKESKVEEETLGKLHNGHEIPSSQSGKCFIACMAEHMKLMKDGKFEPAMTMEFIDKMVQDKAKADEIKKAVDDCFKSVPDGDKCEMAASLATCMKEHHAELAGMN

O=C(c1ccccc1)c1ccccc1 [benzophenone]
IC50 (SfurOBP2): > 20 µM
Fluorescence competitive binding assay, OBP2 (raw fluorescence reading) (SfurOBP2; ligand concentration 2 (unit not given), replicate column 1 of 3): 16222
Fluorescence competitive binding assay, OBP2 (raw fluorescence reading) (SfurOBP2; ligand concentration 2 (unit not given), replicate column 2 of 3): 16950
Fluorescence competitive binding assay, OBP2 (raw fluorescence reading) (SfurOBP2; ligand concentration 2 (unit not given), replicate column 3 of 3): 16565
Fluorescence competitive binding assay, OBP2 (raw fluorescence reading) (SfurOBP2; ligand concentration 4 (unit not given), replicate column 1 of 3): 15645
Fluorescence competitive binding assay, OBP2 (raw fluorescence reading) (SfurOBP2; ligand concentration 4 (unit not given), replicate column 2 of 3): 17125
Fluorescence competitive binding assay, OBP2 (raw fluorescence reading) (SfurOBP2; ligand concentration 4 (unit not given), replicate column 3 of 3): 16794
Fluorescence competitive binding assay, OBP2 (raw fluorescence reading) (SfurOBP2; ligand concentration 6 (unit not given), replicate column 1 of 3): 16160
Fluorescence competitive binding assay, OBP2 (raw fluorescence reading) (SfurOBP2; ligand concentration 6 (unit not given), replicate column 2 of 3): 16241
Fluorescence competitive binding assay, OBP2 (raw fluorescence reading) (SfurOBP2; ligand concentration 6 (unit not given), replicate column 3 of 3): 16073
Fluorescence competitive binding assay, OBP2 (raw fluorescence reading) (SfurOBP2; ligand concentration 8 (unit not given), replicate column 1 of 3): 14263
Fluorescence competitive binding assay, OBP2 (raw fluorescence reading) (SfurOBP2; ligand concentration 8 (unit not given), replicate column 2 of 3): 14653
Fluorescence competitive binding assay, OBP2 (raw fluorescence reading) (SfurOBP2; ligand concentration 8 (unit not given), replicate column 3 of 3): 15131
Fluorescence competitive binding assay, OBP2 (raw fluorescence reading) (SfurOBP2; ligand concentration 10 (unit not given), replicate column 1 of 3): 13747
Fluorescence competitive binding assay, OBP2 (raw fluorescence reading) (SfurOBP2; ligand concentration 10 (unit not given), replicate column 2 of 3): 14449
Fluorescence competitive binding assay, OBP2 (raw fluorescence reading) (SfurOBP2; ligand concentration 10 (unit not given), replicate column 3 of 3): 15134
Fluorescence competitive binding assay, OBP2 (raw fluorescence reading) (SfurOBP2; ligand concentration 12 (unit not given), replicate column 1 of 3): 12905
Fluorescence competitive binding assay, OBP2 (raw fluorescence reading) (SfurOBP2; ligand concentration 12 (unit not given), replicate column 2 of 3): 13209
Fluorescence competitive binding assay, OBP2 (raw fluorescence reading) (SfurOBP2; ligand concentration 12 (unit not given), replicate column 3 of 3): 14417
Fluorescence competitive binding assay, OBP2 (raw fluorescence reading) (SfurOBP2; ligand concentration 14 (unit not given), replicate column 1 of 3): 11252
Fluorescence competitive binding assay, OBP2 (raw fluorescence reading) (SfurOBP2; ligand concentration 14 (unit not given), replicate column 2 of 3): 12436
Fluorescence competitive binding assay, OBP2 (raw fluorescence reading) (SfurOBP2; ligand concentration 14 (unit not given), replicate column 3 of 3): 12979
Fluorescence competitive binding assay, OBP2 (raw fluorescence reading) (SfurOBP2; ligand concentration 16 (unit not given), replicate column 1 of 3): 11787
Fluorescence competitive binding assay, OBP2 (raw fluorescence reading) (SfurOBP2; ligand concentration 16 (unit not given), replicate column 2 of 3): 11767
Fluorescence competitive binding assay, OBP2 (raw fluorescence reading) (SfurOBP2; ligand concentration 16 (unit not given), replicate column 3 of 3): 11673
Fluorescence competitive binding assay, OBP2 (raw fluorescence reading) (SfurOBP2; ligand concentration 18 (unit not given), replicate column 1 of 3): 12436
Fluorescence competitive binding assay, OBP2 (raw fluorescence reading) (SfurOBP2; ligand concentration 18 (unit not given), replicate column 2 of 3): 11331
Fluorescence competitive binding assay, OBP2 (raw fluorescence reading) (SfurOBP2; ligand concentration 18 (unit not given), replicate column 3 of 3): 11969
Fluorescence competitive binding assay, OBP2 (raw fluorescence reading) (SfurOBP2; ligand concentration 20 (unit not given), replicate column 1 of 3): 11423
Fluorescence competitive binding assay, OBP2 (raw fluorescence reading) (SfurOBP2; ligand concentration 20 (unit not given), replicate column 2 of 3): 12242
Fluorescence competitive binding assay, OBP2 (raw fluorescence reading) (SfurOBP2; ligand concentration 20 (unit not given), replicate column 3 of 3): 11724
IC50 (SfurOBP3): > 20 µM
Fluorescence competitive binding assay, fluorescence intensity (SfurOBP3; ligand concentration 2): 66323 and 67865 and 69406
Fluorescence competitive binding assay, fluorescence intensity (SfurOBP3; ligand concentration 4): 72270 and 71733 and 72815
Fluorescence competitive binding assay, fluorescence intensity (SfurOBP3; ligand concentration 6): 57537 and 56825 and 55208
Fluorescence competitive binding assay, fluorescence intensity (SfurOBP3; ligand concentration 8): 58199 and 53071 and 55635
Fluorescence competitive binding assay, fluorescence intensity (SfurOBP3; ligand concentration 10): 54477 and 51518 and 50551
Fluorescence competitive binding assay, fluorescence intensity (SfurOBP3; ligand concentration 12): 55084 and 52185 and 53632
Fluorescence competitive binding assay, fluorescence intensity (SfurOBP3; ligand concentration 14): 52805 and 53281 and 53058
Fluorescence competitive binding assay, fluorescence intensity (SfurOBP3; ligand concentration 16): 41260 and 41464 and 41332
Fluorescence competitive binding assay, fluorescence intensity (SfurOBP3; ligand concentration 18): 39853 and 41331 and 40577
Fluorescence competitive binding assay, fluorescence intensity (SfurOBP3; ligand concentration 20): 39610 and 40773 and 38426
IC50 (SfurOBP11): 16.3 µM
Fluorescence intensity, fluorescence competitive binding assay, OBP11 (SfurOBP11; ligand concentration 2, replicate 1): 21450
Fluorescence intensity, fluorescence competitive binding assay, OBP11 (SfurOBP11; ligand concentration 2, replicate 2): 21005
Fluorescence intensity, fluorescence competitive binding assay, OBP11 (SfurOBP11; ligand concentration 2, replicate 3): 21027
Fluorescence intensity, fluorescence competitive binding assay, OBP11 (SfurOBP11; ligand concentration 4, replicate 1): 20588
Fluorescence intensity, fluorescence competitive binding assay, OBP11 (SfurOBP11; ligand concentration 4, replicate 2): 20654
Fluorescence intensity, fluorescence competitive binding assay, OBP11 (SfurOBP11; ligand concentration 4, replicate 3): 20719
Fluorescence intensity, fluorescence competitive binding assay, OBP11 (SfurOBP11; ligand concentration 6, replicate 1): 19889
Fluorescence intensity, fluorescence competitive binding assay, OBP11 (SfurOBP11; ligand concentration 6, replicate 2): 20401
Fluorescence intensity, fluorescence competitive binding assay, OBP11 (SfurOBP11; ligand concentration 6, replicate 3): 19317
Fluorescence intensity, fluorescence competitive binding assay, OBP11 (SfurOBP11; ligand concentration 8, replicate 1): 19997
Fluorescence intensity, fluorescence competitive binding assay, OBP11 (SfurOBP11; ligand concentration 8, replicate 2): 20308
Fluorescence intensity, fluorescence competitive binding assay, OBP11 (SfurOBP11; ligand concentration 8, replicate 3): 18308
Fluorescence intensity, fluorescence competitive binding assay, OBP11 (SfurOBP11; ligand concentration 10, replicate 1): 18532
Fluorescence intensity, fluorescence competitive binding assay, OBP11 (SfurOBP11; ligand concentration 10, replicate 2): 18946
Fluorescence intensity, fluorescence competitive binding assay, OBP11 (SfurOBP11; ligand concentration 10, replicate 3): 17435
Fluorescence intensity, fluorescence competitive binding assay, OBP11 (SfurOBP11; ligand concentration 12, replicate 1): 17719
Fluorescence intensity, fluorescence competitive binding assay, OBP11 (SfurOBP11; ligand concentration 12, replicate 2): 18881
Fluorescence intensity, fluorescence competitive binding assay, OBP11 (SfurOBP11; ligand concentration 12, replicate 3): 17057
Fluorescence intensity, fluorescence competitive binding assay, OBP11 (SfurOBP11; ligand concentration 14, replicate 1): 16744
Fluorescence intensity, fluorescence competitive binding assay, OBP11 (SfurOBP11; ligand concentration 14, replicate 2): 17392
Fluorescence intensity, fluorescence competitive binding assay, OBP11 (SfurOBP11; ligand concentration 14, replicate 3): 16199
Fluorescence intensity, fluorescence competitive binding assay, OBP11 (SfurOBP11; ligand concentration 16, replicate 1): 16069
Fluorescence intensity, fluorescence competitive binding assay, OBP11 (SfurOBP11; ligand concentration 16, replicate 2): 15955
Fluorescence intensity, fluorescence competitive binding assay, OBP11 (SfurOBP11; ligand concentration 16, replicate 3): 16012
Fluorescence intensity, fluorescence competitive binding assay, OBP11 (SfurOBP11; ligand concentration 18, replicate 1): 16341
Fluorescence intensity, fluorescence competitive binding assay, OBP11 (SfurOBP11; ligand concentration 18, replicate 2): 15453
Fluorescence intensity, fluorescence competitive binding assay, OBP11 (SfurOBP11; ligand concentration 18, replicate 3): 16084
Fluorescence intensity, fluorescence competitive binding assay, OBP11 (SfurOBP11; ligand concentration 20, replicate 1): 15275
Fluorescence intensity, fluorescence competitive binding assay, OBP11 (SfurOBP11; ligand concentration 20, replicate 2): 14432
Fluorescence intensity, fluorescence competitive binding assay, OBP11 (SfurOBP11; ligand concentration 20, replicate 3): 14489
IC50 (SfurOBP1): > 20 µM
Fluorescence competitive binding assay, fluorescence intensity (SfurOBP1; ligand concentration 2 (μM)): 4924 and 4810 and 4695
Fluorescence competitive binding assay, fluorescence intensity (SfurOBP1; ligand concentration 4 (μM)): 5262 and 5281 and 5299
Fluorescence competitive binding assay, fluorescence intensity (SfurOBP1; ligand concentration 6 (μM)): 5268 and 5717 and 5292
Fluorescence competitive binding assay, fluorescence intensity (SfurOBP1; ligand concentration 8 (μM)): 5360 and 5130 and 5580
Fluorescence competitive binding assay, fluorescence intensity (SfurOBP1; ligand concentration 10 (μM)): 5344 and 5432 and 5519
Fluorescence competitive binding assay, fluorescence intensity (SfurOBP1; ligand concentration 12 (μM)): 5178 and 5515 and 5347
Fluorescence competitive binding assay, fluorescence intensity (SfurOBP1; ligand concentration 14 (μM)): 5173 and 5557 and 5365
Fluorescence competitive binding assay, fluorescence intensity (SfurOBP1; ligand concentration 16 (μM)): 5828 and 4931 and 5380
Fluorescence competitive binding assay, fluorescence intensity (SfurOBP1; ligand concentration 18 (μM)): 5476 and 5297 and 5257
Fluorescence competitive binding assay, fluorescence intensity (SfurOBP1; ligand concentration 20 (μM)): 5039 and 5512 and 5595
